In publication PMC8587544, “Identification of Novel Antagonists Targeting Cannabinoid Receptor 2 Using a Multi-Step Virtual Screening Strategy” (Molecules, 2021):
Where two headings read alike, the source gives them in different places.

Experiments:
CB2 receptor = details: cited from earlier work; for Ki: pharmacophore training set, ChEMBL27 database; for pKi: CB2 receptor
human CB2 receptor [1] = target: T1, human CB2 receptor (Homo sapiens, UniProt P34972); assay: Radioligand binding assays at human CB2 receptor ([3H]-CP55940); details: [3H]-CP55940 0.8 nM, 90 min, 30 °C, read-out: Binding Affinities pKi (converted)
Method: The 15 compounds were purchased from J&K Scientific Ltd. (Shanghai, China). The radioligand binding assays and functional assays to CB2 receptor were performed by Pharmaron (Beijing) upon commission. In the CB2 receptor assays, [^3H]-CP55940 was used as the radioligand; the 15 compounds were tested in radioligand binding assays at human CB2 receptor ([^3H]-CP55940). The competition binding experiments of the test compounds at ten different concentrations and [^3H]-CP55940 (0.8 nM) against CB2 receptor (2 μg/well) were performed for 90 min at 30 °C in 500 μL of assay buffer (25 mM HEPES, 10 mM MgCl2, 1 mM CaCl2, 0.5% BSA, pH 7.4).

human CB1 receptor [2] = target: T2, human CB1 receptor (Homo sapiens, UniProt P21554); assay: Radioligand binding assays at human CB1 receptor; details: read-out: Binding affinities pKi (converted)
Method: (§1) The binding and functional selectivity of the five compounds were tested by performing radioligand binding assays and cAMP functional assays against the CB1 receptor.

human CB1 receptor [3] = target: T2, human CB1 receptor; assay: cAMP functional assay against CB1 receptor; assay type: cell-based
Method: as §1

human CB2 receptor [4] = target: T1, human CB2 receptor; assay: cAMP functional assay in Flpin-CHO-CB2 cells (antagonism of CP55940-mediated decrease in cAMP); assay type: cell-based
Method: Compounds 1, 3, 6, 7, 8, 12, and 15 were further evaluated by cAMP functional assays.
The CB2 receptor antagonistic activities of the 7 compounds were evaluated by investigating CB2-mediated cAMP production in Flpin-CHO-K1 cells functional assay. The Flpin-CHO-K1 cells that are engineered to stably express human CB2 receptor (the Flpin-CHO-CB2 cells) were cultured in the growth medium (Ham’s F12K + 10%FBS + 1×Ps + 800 ug/mL HB) at 37 °C and 5% CO2. The cells were then collected by centrifugation and resuspended in Hank’s balanced salt solution (HBSS), 0.1% bovine serum albumin (BSA), 20 mM N-(2-hydroxyethyl)-piperazine-N0-ethanesulfonic acid (HEPES), and 500 μM 3-isobutyl-1-methylxanthine (IBMX). The test compounds were serially diluted in DMSO at 2-fold dilutions of 10 concentrations ranging from 10,000 μM to 20 μM. The antagonistic activities were evaluated by assessing their ability to counteract the agonist (CP55940)-mediated decrease in cAMP accumulation. The accumulation of cAMP was determined by following the manufacturer’s instructions for a Perkin Elmer cAMP kit.

[5] = CB1 receptor, cAMP functional assay, read-out: antagonistic activities against the CB1 receptor
[6] = human CB2 receptor, Flpin-CHO-CB2 cells, antagonism of CP55940, read-out: cAMP Assay pIC50 (converted)
[7] = human CB1 receptor, read-out: cAMP assay pIC50 (converted)

T1 sequence (P34972 whole entry): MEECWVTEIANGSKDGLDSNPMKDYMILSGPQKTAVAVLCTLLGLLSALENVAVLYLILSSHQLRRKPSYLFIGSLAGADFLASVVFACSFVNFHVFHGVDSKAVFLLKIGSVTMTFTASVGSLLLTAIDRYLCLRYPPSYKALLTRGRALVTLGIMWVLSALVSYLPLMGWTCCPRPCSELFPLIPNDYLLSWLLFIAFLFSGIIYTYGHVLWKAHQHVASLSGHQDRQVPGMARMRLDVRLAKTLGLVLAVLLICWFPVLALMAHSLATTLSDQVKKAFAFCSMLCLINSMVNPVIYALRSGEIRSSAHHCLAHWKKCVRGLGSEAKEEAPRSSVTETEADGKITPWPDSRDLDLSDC
T2 sequence (P21554 whole entry): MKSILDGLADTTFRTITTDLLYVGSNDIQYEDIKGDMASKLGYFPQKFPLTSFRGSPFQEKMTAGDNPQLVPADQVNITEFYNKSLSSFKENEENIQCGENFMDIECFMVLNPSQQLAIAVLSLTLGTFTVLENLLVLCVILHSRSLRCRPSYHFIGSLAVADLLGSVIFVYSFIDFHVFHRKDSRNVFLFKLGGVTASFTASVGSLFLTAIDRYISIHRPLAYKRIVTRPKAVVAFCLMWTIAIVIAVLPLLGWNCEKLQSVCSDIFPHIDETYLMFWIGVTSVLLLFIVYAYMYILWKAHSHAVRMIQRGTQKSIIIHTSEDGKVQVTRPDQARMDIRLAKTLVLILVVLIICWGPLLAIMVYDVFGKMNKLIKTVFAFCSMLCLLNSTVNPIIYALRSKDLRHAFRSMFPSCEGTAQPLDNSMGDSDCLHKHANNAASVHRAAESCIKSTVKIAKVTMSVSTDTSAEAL

Compound: CCOC(=O)c1c(NC(=O)C23CC4CC(CC(C4)C2)C3)sc2c1CCCC2 [CHEMBL3909238]
- Ki (CB2 receptor): 2.15 nM

Compound: COc1ccc(C(=O)c2c(C)n(CCN3CCOCC3)c3cc(I)ccc23)cc1 [AM630]
- pKi (CB2 receptor): 7.5

Compound: O=C(NC1CCCCCC1)c1cc(-c2cccs2)nn1Cc1ccc(F)cc1 [Compound 15]
- Ki (human CB2 receptor [1]): 1.74 µM
- Ki (human CB1 receptor [2]): 25.7 µM
- IC50 (human CB1 receptor [3]; cAMP assay pIC50, human CB1 receptor): 4.57 µM
- IC50 (human CB2 receptor [4]): 2.82 µM

Compound: CCCCNC(=O)Cn1c(=O)n(-c2cccc(C(F)(F)F)c2)c(=O)c2sccc21 [Compound 10]
- Ki (human CB2 receptor [1]): 17.8 µM

Compound: CCCCCCC1(c2cc(O)c3c(c2)OC(C)(C)[C@@H]2CC=C(C)C[C@@H]32)CCCC1 [CHEMBL108868]
- Ki (CB2 receptor): 1.91 nM

Compound: COc1ccccc1Nc1sc(C(=O)c2ccccc2)c(N)c1S(=O)(=O)c1ccccc1 [Compound 3]
- Ki (human CB2 receptor [1]): 4.9 µM
- Ki (human CB1 receptor [2]): 18.6 µM
- IC50 (human CB1 receptor [3]; [5]): > 20 µM
- IC50 (human CB2 receptor [4]; [6]): 0.339 µM

Compound: O=C(CSc1nc2nccnc2c(=O)n1Cc1ccc2c(c1)OCO2)Nc1ccc(F)cc1 [Compound 5]
- Ki (human CB2 receptor [1]): 38 µM

Compound: CSC(=S)N1CC2(CCCCC2)CS/C1=N\c1cccc(C(C)C)c1 [CHEMBL231719]
- Ki (CB2 receptor): 2.5 nM

Compound: O=c1c2nccnc2nc(SCc2cccc(F)c2)n1Cc1cccs1 [Compound 12]
- Ki (human CB2 receptor [1]): 3.55 µM
- Ki (human CB1 receptor [2]): 38 µM
- IC50 (human CB1 receptor [3]; [5]): > 20 µM
- IC50 (human CB2 receptor [4]; [6]): 5.62 µM

Compound: COc1cc(C(O)c2cccs2)cc(OC)c1-c1cc(Cl)cc(Cl)c1 (stereo not shown) [CHEMBL1076685]
- Ki (CB2 receptor): 0.2 nM

Compound: Cc1cc(S(=O)(=O)c2cc3cc(C(C)(C)C)cc(O)c3oc2=O)ccc1F [Compound 9]
- Ki (human CB2 receptor [1]): 23.4 µM

Compound: CCCCCn1cc(C(=O)NC23CC4CC(CC(C4)C2)C3)c(=O)c2cc(-c3ccc(O)cc3)ccc21 [CHEMBL1215918]
- Ki (CB2 receptor): 4.2 nM

Compound: C[C@@H](NS(=O)(=O)C(F)(F)F)c1ccc(S(=O)(=O)c2ccoc2S(=O)(=O)c2ccccc2F)cc1 [CHEMBL1270480]
- Ki (CB2 receptor): 4.4 nM

Compound: Cc1cccn2c(=O)c(/C=C3\SC(=S)N(Cc4ccco4)C3=O)c(NCC3CCCO3)nc12 (stereo not shown) [Compound 8]
- Ki (human CB2 receptor [1]): 0.219 µM
- Ki (human CB1 receptor [2]): 3.39 µM
- IC50 (human CB1 receptor [3]; [5]): > 20 µM
- IC50 (human CB1 receptor [3]; [7]): > 20 µM
- antagonistic activity towards the CB2 receptor in comparison to the CB1 receptor (selectivity) (human CB2 receptor [4]; cAMP functional assays, CB2 over CB1): more than 100 times
- IC50 (human CB2 receptor [4]; [6]): 0.117 µM

Compound: Cc1ccc(C)c(CNC(=O)c2cc(-c3cccs3)nn2Cc2ccc(F)cc2)c1 [Compound 14]
- Ki (human CB2 receptor [1]): 17.8 µM

Compound: CC(=O)Nc1c2n(c3ccc(F)cc13)CC(C)(C(=O)NC1CCCC1)N(Cc1ccc(F)cc1)C2=O (stereo not shown) [Compound 13]
- Ki (human CB2 receptor [1]): 33.1 µM

Compound: SR144528
- pKi (CB2 receptor): 8.3–9.2

Compound: O=C(Cn1c(=O)n(Cc2ccccc2)c(=O)c2sc3ccccc3c21)NC1CCCCC1 [Compound 4]
- Ki (human CB2 receptor [1]): > 100 µM

Compound: CC(=O)N1CCc2c(sc3c2c(=O)n(Cc2ccccc2)c(=O)n3Cc2c(F)cccc2Cl)C1 [Compound 7]
- Ki (human CB2 receptor [1]): 6.61 µM
- Ki (human CB1 receptor [2]): 16.6 µM
- IC50 (human CB1 receptor [3]; [7]): 7.08 µM
- IC50 (human CB2 receptor [4]; [6]): 3.47 µM

Compound: COCCn1c(C)c(C)sc1=NC(=O)C1C(C)(C)C1(C)C [CHEMBL1668519]
- Ki (CB2 receptor): 0.64 nM

Compound: COc1ccc(-n2c(=O)c3c4c(sc3n(Cc3ccc(F)cc3)c2=O)CN(C(C)=O)CC4)cc1 [Compound 6]
- Ki (human CB2 receptor [1]): 7.08 µM
- IC50 (human CB2 receptor [4]; [6]): > 20 µM

Compound: CN(C(=O)c1nn(C)c2c1COc1ccccc1-2)c1cccc(C(F)(F)F)c1 [Compound 11]
- Ki (human CB2 receptor [1]): 13.8 µM

Compound: COc1cc(C2CC(=O)Nc3c2c(=O)n(C)c(=O)n3C)ccc1OCc1cccc(F)c1 (stereo not shown) [Compound 2]
- Ki (human CB2 receptor [1]): > 100 µM

Compound: NC(=O)c1nc(Nc2ccccc2)sc1NC(=O)C12CC3CC(CC(C3)C1)C2 [Compound 1]
- Ki (human CB2 receptor [1]): 1.58 µM
- IC50 (human CB2 receptor [4]; [6]): > 20 µM
